This is an account of results in article PMC8224697 (Marine Drugs, 2021).

For one assay, the system named is C. albicans SC5314. The experiment in a line: In vitro growth assay (MIC) in YNB broth. The assay is classed as cell-based, Candida albicans. To be noted: 28 °C. An excerpt:
(§1) Following phagocytosis by macrophages, C. albicans undergoes a metabolic shift from glycolysis to the glyoxylate cycle, enabling cells to utilize C2 carbon sources. Therefore, we hypothesized that the ICL inhibitor reduces nutrient uptake capacity and impedes the survival of C. albicans within macrophages.
(§2) The ICL gene was cloned from C. albicans strain ATCC10231 genomic DNA. C. albicans SC5314 (ATCC MYA-2876) (wild type), MRC10 (Δicl) (ICL-deletion mutant), MRC11 (Δicl + ICL) (ICL-complemented mutant), […], ATCC18804, and ATCC11006 were used for the growth assay. The ICL-deletion mutant strains MRC10 and MRC11 were kindly provided by Prof. Michael C. Lorenz (The University of Texas Health Science Center at Houston). Each strain was subcultured in YNB broth (Difco Laboratories, Detroit, MI, USA) supplemented with 2% glucose at 28 °C. For the ICL inhibitor addition, isolated compounds dissolved in DMSO were added to a final solvent concentration of 0.5% in all growth assays.
(§3) The antifungal activity of secoemestrin C (1), dethiosecoemestrin (2), emestrin (3), and emestrin B (4) was evaluated against C. albicans strains (SC5314, ATCC10231, ATCC10259, ATCC11006, and ATCC18804) using a previously documented procedure. The growth of C. albicans was monitored in YNB broth with glucose or potassium acetate as the carbon source. The plates were incubated at 28 °C for 3 days. […] Amphotericin B, an antifungal agent, was applied as a positive control.

Assay [1] addresses T1, recombinant ICL cloned from C. albicans ATCC10231 (Candida albicans, UniProt Q9P8Q7).
T1 construct: made in house
The experiment in a line: ICL inhibition assay (glyoxylate phenylhydrazone formation, A324 nm). The assay is classed as biochemical. The following applies: for IC50: purified recombinant ICL, n = 3. As for the experimental part: The preparation of recombinant ICL cloned from C. albicans ATCC10231 was performed as described previously. The inhibitory activities of secoemestrin C (1), dethiosecoemestrin (2), emestrin (3), and emestrin B (4) against purified recombinant ICL were evaluated according to a previously documented procedure. The production of ICL-catalyzed glyoxylate phenylhydrazone from phenylhydrazine and isocitrate was measured using a spectrophotometer at an absorbance wavelength of 324 nm.
The preparation of the recombinant ICL protein from C. albicans ATCC10231 was performed as described in a previous paper. We used the two synthetic primers IC-1 (5′-[…]-3′) and IC-2 (5′-[…] […]-3′) to perform a PCR amplification of ICL. The ICL inhibitory activity of the test compounds were evaluated according to a previously described method. The ICL-catalyzed formation of glyoxylate phenylhydrazone from isocitrate and phenylhydrazine substrates was measured using a spectrophotometer at an absorbance wavelength of 324 nm. The inhibitory activity of the test compound was calculated relative to that of the DMSO control (n = 3). We used 3-nitropropionate as a positive control.

In a further assay the test system is C. albicans ATCC10231. Briefly: microbe, parasite or virus in culture. The assay is classed as cell-based, Candida albicans.
Excerpt: as §2, §3

The next assay relates to C. albicans ATCC18804. The experiment in a line: In vitro growth assay (MIC) in YNB broth. The assay is classed as cell-based. The following applies: Candida albicans, ATCC18804, 72 h, 28 °C.
Excerpt: as §1, §2, §3

In another assay the test system is C. albicans ATCC10259. The experiment in a line: In vitro growth assay (MIC) in YNB broth. The following applies: Candida albicans, ATCC10259, 72 h, 28 °C. The assay is classed as cell-based.
Excerpt: as §1, §2, §3

A further assay concerns C. albicans ATCC11006. Briefly: In vitro growth assay (MIC) in YNB broth. The assay is classed as cell-based. To be noted: Candida albicans, ATCC11006, 72 h, 28 °C.
Excerpt: as §1, §2, §3

Assay [2] has as its system ICL mRNA expression in C. albicans. Briefly: ICL mRNA expression by semi-quantitative RT-PCR. The following applies: cells grown in 2% acetate with 16, 32, or 64 μg/mL compound; 4 h, 28 °C; SC5314 and MRC11. The assay is classed as cell-based, Candida albicans. As for the experimental part:
Figure 3 Inhibitory activity of secoemestrin C (1) toward the growth and ICL mRNA expression of C. albicans. (a) C. albicans strains SC5314 (wild-type), MRC10 (Δicl), and MRC11 (Δicl + ICL) were cultured on YNB agar plates containing 2% glucose or 2% potassium acetate as a carbon source with or without 64 μg/mL secoemestrin C (1) for 2 days at 28 °C. (b) Strains were grown in YNB broth containing 2% glucose, collected by centrifugation, and transferred to YNB containing 2% glucose (Glu), 2% potassium acetate (Ace), or 2% Ace + secoemestrin C (1) (16, 32, or 64 μg/mL) and cultured for 4 h at 28 °C. ICL mRNA expression was analyzed by RT-PCR. Glyceraldehyde-3-phosphate dehydrogenase (GPDH), a housekeeping gene, was measured as a loading control.
We further investigated the effects of secoemestrin C (1) on ICL mRNA expression in C. albicans using a semi-quantitative reverse-transcription polymerase chain reaction (RT-PCR). […] GPDH expression was detected in all treatment conditions.
Growth phenotype and ICL expression analysis were performed using C. albicans strains SC5314 (wild type), MRC10 (Δicl), and MRC11 (Δicl + ICL) according to a previously described method. […] Semi-quantitative RT-PCR was conducted using ICL-specific primers: 5′-[…]-3′ (forward) and 5′-TAGATTCAGCTTCA GCCATCAAAGC-3′ (reverse). […]

Assay [3] has as its system C. albicans strains (SC5314, ATCC10231, ATCC10259, ATCC11006, and ATCC18804). Briefly: In vitro growth assay (MIC), summary over the strain panel. The assay is classed as cell-based. The following applies: Candida albicans; C. albicans growing on acetate, over five strains. As for the experimental part:
as §1, §3

The test system of assay [4] is C. albicans strains SC5314 (wild type), MRC10 (Δicl), and MRC11 (Δicl + ICL). Briefly: Growth phenotype analysis on YNB agar plates. The assay is classed as cell-based, Candida albicans. To be noted: 2 days, 28 °C. As for the experimental part: To determine the effects of secoemestrin C (1) on C. albicans growth under C2–assimilating conditions, phenotypic analyses of ICL-deletion mutants were also performed using C. albicans strains SC5314 (wild type), MRC10 (Δicl), and MRC11 (Δicl + ICL). After pre-culture, each strain was streaked onto YNB agar plates supplemented with glucose or potassium acetate with or without 64 μg/mL secoemestrin C (1).
Figure 3 Inhibitory activity of secoemestrin C (1) toward the growth and ICL mRNA expression of C. albicans. (a) C. albicans strains SC5314 (wild-type), MRC10 (Δicl), and MRC11 (Δicl + ICL) were cultured on YNB agar plates containing 2% glucose or 2% potassium acetate as a carbon source with or without 64 μg/mL secoemestrin C (1) for 2 days at 28 °C. […] ICL mRNA expression was analyzed by RT-PCR. Glyceraldehyde-3-phosphate dehydrogenase (GPDH), a housekeeping gene, was measured as a loading control.
Growth phenotype and ICL expression analysis were performed using C. albicans strains SC5314 (wild type), MRC10 (Δicl), and MRC11 (Δicl + ICL) according to a previously described method. […] Semi-quantitative RT-PCR was conducted using ICL-specific primers: 5′-[…]-3′ (forward) and 5′-TAGATTCAGCTTCA GCCATCAAAGC-3′ (reverse). The expression of the housekeeping gene glyceraldehyde-3-phosphate dehydrogenase (GPDH) was measured as a loading control.

The mark [5] stands for this setting: Candida albicans, SC5314, 72 h, YNB with 2% glucose, read-out: MIC.
The mark [6] stands for this setting: Candida albicans, ATCC10231, Table 1: growth of C. albicans ATCC10231.
Where [7] appears, read: Candida albicans, SC5314, 72 h, YNB with 2% potassium acetate, read-out: MIC.
Setting [8] is: YNB with 2% glucose, read-out: MIC.
Where [9] appears, read: YNB with 2% potassium acetate, read-out: MIC.
The mark [10] stands for this setting: Candida albicans, ATCC10231, 72 h, ATCC10231, YNB with 2% glucose, 72 h, 28 °C, read-out: MIC.
Where [11] appears, read: Candida albicans, ATCC10231, 72 h, ATCC10231, YNB with 2% potassium acetate, 72 h, 28 °C, read-out: MIC.
Where [12] appears, read: Candida albicans, ATCC10231, Table 1: growth of C. albicans ATCC10231, read-out: MIC.

Values after ≈ are worked out from the molar mass of the structure shown. “Also recorded” adds a separate entry of the source. Read-outs that look alike come from different tables or passages of the source. Where only a bound is given, the exact number is not on record here.

T1 sequence (Q9P8Q7 whole entry): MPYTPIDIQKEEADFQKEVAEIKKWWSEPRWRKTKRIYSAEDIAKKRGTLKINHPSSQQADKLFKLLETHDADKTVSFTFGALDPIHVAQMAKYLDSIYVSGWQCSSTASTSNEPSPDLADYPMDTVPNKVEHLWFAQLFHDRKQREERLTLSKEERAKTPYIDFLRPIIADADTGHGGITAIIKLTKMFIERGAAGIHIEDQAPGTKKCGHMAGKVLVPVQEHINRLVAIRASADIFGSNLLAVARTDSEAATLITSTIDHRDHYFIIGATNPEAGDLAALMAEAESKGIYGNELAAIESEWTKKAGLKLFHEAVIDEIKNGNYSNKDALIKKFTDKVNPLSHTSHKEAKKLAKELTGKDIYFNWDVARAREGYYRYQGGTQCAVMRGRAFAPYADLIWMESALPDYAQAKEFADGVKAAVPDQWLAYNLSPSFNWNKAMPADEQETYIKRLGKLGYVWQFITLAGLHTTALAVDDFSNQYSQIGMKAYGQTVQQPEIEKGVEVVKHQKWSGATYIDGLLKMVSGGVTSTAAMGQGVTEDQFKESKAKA

For `COc1ccc2cc1Oc1cc(ccc1O)C(O)C13SSSC4(C(=O)N1C)C(O)C1=COC=CC(OC2=O)C1N4C3=O` (stereo not drawn) [Emestrin B (4), emestrin B], in the assay on C. albicans SC5314 (setting [5]), the MIC was greater than 128 µg/mL. For the same compound, in assay [1], the “inhibitory activity toward ICL (in words)” value is “no inhibitory activity; also recorded: not inhibitors of ICL” and the concentration for half-maximal inhibition (IC50) was greater than 203 µM. Further, in the assay with C. albicans ATCC10231 (setting [6]), the MIC is greater than 128 µg/mL.

In the case of `C[C@@H]1[C@H](O)[C@@H](C)/C=C/C=C/C=C/C=C/C=C/C=C/C=C/[C@H](O[C@@H]2O[C@H](C)[C@@H](O)[C@H](N)[C@@H]2O)C[C@@H]2O[C@](O)(C[C@@H](O)C[C@@H](O)[C@H](O)CC[C@@H](O)C[C@@H](O)CC(=O)O[C@H]1C)C[C@H](O)[C@H]2C(=O)O` [Amphotericin B, amphotericin B, reference compound], the MIC in the assay on C. albicans SC5314 (setting [5]) came out at 0.5 µg/mL (≈ 0.541 µM); in the assay with C. albicans SC5314 (setting [7]), 0.5 µg/mL (≈ 0.541 µM); with C. albicans ATCC18804 (setting [8]) it was 1 µg/mL (≈ 1.08 µM); with C. albicans ATCC18804 (setting [9]) it was 1 µg/mL (≈ 1.08 µM); with C. albicans ATCC10259 (setting [8]) it was 1 µg/mL (≈ 1.08 µM); in the assay with C. albicans ATCC10259 (setting [9]) it was 0.5 µg/mL (≈ 0.541 µM). Further, the MIC with C. albicans ATCC11006 (setting [8]), with C. albicans ATCC11006 (setting [9]), in the assay on C. albicans ATCC10231 (setting [10]), with C. albicans ATCC10231 (setting [11]) and in the assay with C. albicans ATCC10231 (setting [12]) was 0.5 µg/mL (≈ 0.541 µM) throughout.

With `COc1ccc(C(=O)O[C@H]2C=COC=C3C=C4C(=O)N(C)C(=O)C(=O)N4[C@@H]32)cc1Oc1cc(C=O)ccc1O` [Dethiosecoemestrin (2), dethiosecoemestrin], the MIC in the assay on C. albicans SC5314 (setting [5]) and in the assay on C. albicans ATCC10231 (setting [12]) was greater than 128 µg/mL each time. Besides, in [1], the “inhibitory activity toward ICL (in words)” value is reported as “no inhibitory activity”. The half-inhibitory concentration (IC50) in assay [1] is greater than 241 µM.

As for `COc1ccc2cc1Oc1cc(ccc1O)C(O)C13SSC4(C(=O)N1C)C(O)C1=COC=CC(OC2=O)C1N4C3=O` (stereo not drawn) [Emestrin (3), emestrin], the MIC in the assay on C. albicans SC5314 (setting [5]) and in the assay with C. albicans ATCC10231 (setting [6]) was greater than 128 µg/mL in each case. Besides, the “inhibitory activity toward ICL (in words)” value in [1] was “not inhibitors of ICL”; in [1] (listed as emestrin (3)) it was “no inhibitory activity”. For the same compound, the 50% inhibitory concentration (IC50) in assay [1] is greater than 214 µM.

For `O=C(O)CC[N+](=O)[O-]` [3-Nitropropionate, 3-nitropropionate, reference compound], in assay [1], the 50% inhibitory concentration (IC50) amounted to 21.8 ± 1.38 µM. Moreover, in the assay with C. albicans ATCC10231 (Table 1: growth of C. albicans ATCC10231), the MIC is greater than 128 µg/mL.

For `COc1ccc(C(=O)O[C@H]2C=COC=C3[C@@H](O)[C@]45SSSS[C@H](C(=O)N4[C@@H]32)N(C)C5=O)cc1Oc1cc(C=O)ccc1O` [Secoemestrin C (1), secoemestrin C], the “intensity of the PCR band corresponding to the ICL product (ICL mRNA)” value in assay [2] is listed as “decreased”. Moreover, the MIC in the assay with C. albicans SC5314 (setting [5]) was greater than 128 µg/mL; in the assay with C. albicans SC5314 (setting [7]), 64 µg/mL (≈ 96.6 µM); in the assay on C. albicans SC5314 (YNB with 2% glucose, 72 h), greater than 128 µg/mL; in assay [3], 32 to 64 µg/mL (≈ 48.3 to 96.6 µM); in the assay on C. albicans ATCC18804 (YNB with 2% glucose), greater than 128 µg/mL; against C. albicans ATCC18804 (YNB with 2% potassium acetate) it was 64 µg/mL (≈ 96.6 µM). Besides, the MIC was greater than 128 µg/mL against C. albicans ATCC10259 (YNB with 2% glucose); 32 µg/mL (≈ 48.3 µM) against C. albicans ATCC10259 (YNB with 2% potassium acetate); greater than 128 µg/mL in the assay with C. albicans ATCC11006 (YNB with 2% glucose); 64 µg/mL (≈ 96.6 µM) in the assay with C. albicans ATCC11006 (YNB with 2% potassium acetate); greater than 128 µg/mL in the assay on C. albicans ATCC10231 (setting [10]); 64 µg/mL (≈ 96.6 µM) with C. albicans ATCC10231 (setting [11]). Moreover, the MIC in the assay with C. albicans ATCC10231 (setting [12]) was greater than 128 µg/mL. Also, the “reversibility of binding to the enzyme” value in assay [1] (enzyme activity not recovered by dialysis within 1 h) is “irreversible”. In addition, the ICL inhibition mechanism entry in [1] (kinetic analysis, Lineweaver–Burk plot) was “uncompetitive inhibitor”. Also, in assay [1], the IC50 came to 4.77 ± 0.08 µM. Besides, the growth phenotype result in assay [4] (2% glucose plus 64 μg/mL compound, all strains) is listed as “normal phenotypes”; in assay [4] (2% potassium acetate plus 64 μg/mL compound) it was “failed to grow; also recorded: no growth”.
